Test results: patent US20230174507A1, “IMIDAZOLE 3-OXIDE DERIVATIVE BASED ACSS2 INHIBITORS AND METHODS OF USE THEREOF” (METABOMED LTD., priority 2020, published 2023); call rule not given here

What was measured:
human ACSS1 protein = target: T1, human ACSS1 protein (Homo sapiens, UniProt Q9NUB1); assay: ACSS1 cell-free activity assay (pyrophosphatase-coupled, Biomol green); assay type: biochemical; settings: 5 nM human ACSS1, 30 minutes at room temperature, absorbance at 620 nm
T1 construct: purchased MyBioSource
T1 sequence (Q9NUB1 38-689): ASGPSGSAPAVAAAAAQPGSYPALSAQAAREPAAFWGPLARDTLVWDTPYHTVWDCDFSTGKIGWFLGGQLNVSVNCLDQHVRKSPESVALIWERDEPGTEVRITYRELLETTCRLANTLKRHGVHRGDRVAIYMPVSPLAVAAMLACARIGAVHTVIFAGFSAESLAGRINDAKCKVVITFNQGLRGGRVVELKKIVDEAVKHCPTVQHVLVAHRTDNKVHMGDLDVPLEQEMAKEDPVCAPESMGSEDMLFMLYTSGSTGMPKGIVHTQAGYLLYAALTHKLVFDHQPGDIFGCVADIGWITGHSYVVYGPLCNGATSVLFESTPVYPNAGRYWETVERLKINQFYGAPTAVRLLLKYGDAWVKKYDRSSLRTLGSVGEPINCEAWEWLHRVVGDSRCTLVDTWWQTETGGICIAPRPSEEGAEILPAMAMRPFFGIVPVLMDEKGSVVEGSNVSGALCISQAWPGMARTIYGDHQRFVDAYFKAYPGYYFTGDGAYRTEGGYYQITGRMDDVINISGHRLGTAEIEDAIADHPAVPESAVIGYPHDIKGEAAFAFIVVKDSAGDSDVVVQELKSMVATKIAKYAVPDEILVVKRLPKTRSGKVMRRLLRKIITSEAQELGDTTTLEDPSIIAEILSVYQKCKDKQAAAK
Protocol: ACSS1 Cell-Free Activity Assay (Cell-Free IC50)
(§1) The assay is based on a coupling reaction with Pyrophosphatase: ACSS1 is converting ATP+CoA+Acetate=>AMP+pyrophosphate+Acetyl-CoA (Ac-CoA). Pyrophosphatase converts pyrophosphate, a product of the ACSS1 reaction, to phosphate which can be detected by measuring the absorbance at 620 nm after incubation with the Biomol green reagent (Enzo life Science, BML-AK111).
(§2) Cell Free IC50 Determination:
5 nM of human ACSS1 protein (MyBioSource) was incubated for 30 minutes at room temperature with various compounds' concentrations in a reaction containing 50 mM Hepes pH 7.5, 10 mM DTT, 90 mM KCl, 0.006% Tween-20, 0.1 mg/ml BSA, 2 mM MgCl2, 15 μM CoA, 5 mM NaAc, 300 μM ATP and 0.5 U/ml Pyrophosphatase (Sigma). At the end of the reaction, Biomol Green was added for 30 minutes at RT and the activity was measured by reading the absorbance at 620 nm. IC50 values were calculated using non-linear regression curve fit with 0% and 100% constrains (CDD Vault, Collaborative Drug Discovery, Inc.).

human ACSS2 protein = target: T2, human ACSS2 protein (Homo sapiens, UniProt Q9NR19); assay: ACSS2 cell-free activity assay (pyrophosphatase-coupled, Biomol green); settings: 10 nM human ACSS2, 90 minutes at 37 C, absorbance at 620 nm; read-out: ACSS2 Biochemical IC50
T2 construct: purchased OriGene Technologies, Inc
T2 sequence (Q9NR19 whole entry): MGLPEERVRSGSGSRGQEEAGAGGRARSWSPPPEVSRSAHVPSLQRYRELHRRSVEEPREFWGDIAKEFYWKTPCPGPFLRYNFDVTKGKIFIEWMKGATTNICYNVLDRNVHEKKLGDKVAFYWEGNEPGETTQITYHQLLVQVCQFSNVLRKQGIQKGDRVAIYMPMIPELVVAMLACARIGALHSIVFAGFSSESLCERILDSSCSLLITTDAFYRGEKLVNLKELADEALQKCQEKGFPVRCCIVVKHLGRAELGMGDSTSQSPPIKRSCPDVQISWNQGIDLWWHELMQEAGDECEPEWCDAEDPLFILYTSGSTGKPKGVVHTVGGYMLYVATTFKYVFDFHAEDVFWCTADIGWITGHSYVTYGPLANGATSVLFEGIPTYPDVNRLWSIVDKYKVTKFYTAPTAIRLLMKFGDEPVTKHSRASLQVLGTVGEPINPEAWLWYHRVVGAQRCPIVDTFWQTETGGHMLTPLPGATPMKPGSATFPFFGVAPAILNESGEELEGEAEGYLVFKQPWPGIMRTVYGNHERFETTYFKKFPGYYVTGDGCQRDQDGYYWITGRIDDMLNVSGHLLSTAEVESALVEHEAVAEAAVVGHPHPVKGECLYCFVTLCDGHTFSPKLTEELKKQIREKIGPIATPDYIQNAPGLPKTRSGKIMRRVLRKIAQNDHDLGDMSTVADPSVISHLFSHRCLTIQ
Protocol: ACSS2 Cell-Free Activity Assay (Cell-Free IC50)
as §1, with “ACSS2” for “ACSS1”
as §2
10 nM of human ACSS2 protein (OriGene Technologies, Inc) was incubated for 90 minutes at 37 C with various compounds' concentrations in a reaction containing 50 mM Hepes pH 7.5, 10 mM DTT, 90 mM KCl, 0.006% Tween-20, 0.1 mg/ml BSA, 2 mM MgCl2, 10 μM CoA, 5 mM NaAc, 300 μM ATP and 0.5 U/ml Pyrophosphatase (Sigma). At the end of the reaction, Biomol Green was added for 30 minutes at RT and the activity was measured by reading the absorbance at 620 nm. IC50 values were calculated using non-linear regression curve fit with 0% and 100% constrains (CDD Vault, Collaborative Drug Discovery, Inc.).

| Structure (SMILES) | ACSS1 Biochemical IC50 (nM) (human ACSS1 protein) | IC50 (human ACSS2 protein) [nM] |
| --- | --- | --- |
| CCC(F)(F)c1cccc(NC(=O)c2c(C)[nH]c(-c3ccc(OC)c(-c4ncccn4)c3C)[n+]2[O-])c1 [Compound 118, 4-((3-(1,1-difluoropropyl)phenyl)carbamoyl)-2-(4-methoxy-2-methyl-3-(pyrimidin-2-yl)phenyl)-5-methyl-1H-imidazole 3-oxide] | Inactive | > 30 |
| COc1ccc(-c2[nH]c(C)c(C(=O)Nc3cccc(C(=O)N4CCN(C)CC4)c3)[n+]2[O-])cc1-c1c(C)cccc1C [Compound 163, 2-[3-(2,6-dimethylphenyl)-4-methoxy-phenyl]-5-methyl-N-[3-(4-methylpiperazine-1-carbonyl)phenyl]-3-oxido-1H-imidazol-3-ium-4-carboxamide] | Inactive | > 30 |
| COc1ccc(-c2[nH]c(C)c(C(=O)Nc3cccc(C(=O)N4CCC4)c3)[n+]2[O-])cc1-c1c(C)cccc1C [Compound 170, 4-((3-(azetidine-1-carbonyl)phenyl)carbamoyl)-2-(6-methoxy-2′,6′-dimethyl-[1,1′-biphenyl]-3-yl)-5-methyl-1H-imidazole 3-oxide] | Inactive | < 1 |
| COc1ccc(-c2[nH]c(C)c(C(=O)Nc3cccc(C(=O)N4CCNCC4)c3)[n+]2[O-])cc1-c1c(C)cccc1C [Compound 153, 2-(6-methoxy-2′,6′-dimethyl-[1,1′-biphenyl]-3-yl)-5-methyl-4-((3-(piperazine-1-carbonyl)phenyl)carbamoyl)-1H-imidazole 3-oxide] | Inactive | > 30 |
| C/C=C\c1cc(C)c(-c2cc(-c3[nH]c(C)c(C(=O)Nc4cccc(C(F)(F)CC)c4)[n+]3[O-])ccc2OC)c(C)c1 [Compound 160, (Z)-4-((3-(1,1-difluoropropyl)phenyl)carbamoyl)-2-(6-methoxy-2′,6′-dimethyl-4′-(prop-1-en-1-yl)-[1,1′-biphenyl]-3-yl)-5-methyl-1H-imidazole 3-oxide] | Inactive | 1 to 30 |
| CC#Cc1cc(C)c(-c2cc(-c3[nH]c(C)c(C(=O)Nc4cccc(C(F)(F)CC)c4)[n+]3[O-])ccc2OC)c(C)c1 [Compound 156, 4-((3-(1,1-difluoropropyl)phenyl)carbamoyl)-2-(6-methoxy-2′,6′-dimethyl-4′-(prop-1-yn-1-yl)-[1,1′-biphenyl]-3-yl)-5-methyl-1H-imidazole 3-oxide] | Inactive | 1 to 30 |
| C/C=C/c1cc(C)c(-c2cc(-c3[nH]c(C)c(C(=O)Nc4cccc(C(F)(F)CC)c4)[n+]3[O-])ccc2OC)c(C)c1 [Compound 159, (E)-4-((3-(1,1-difluoropropyl)phenyl)carbamoyl)-2-(6-methoxy-2′,6′-dimethyl-4′-(prop-1-en-1-yl)-[1,1′-biphenyl]-3-yl)-5-methyl-1H-imidazole 3-oxide] | Inactive | 1 to 30 |
| CCC(F)(F)c1cccc(NC(=O)c2c(C)[nH]c(-c3ccc(OC)c(C4CCN(C)CC4)c3)[n+]2[O-])c1 [Compound 166, N-[3-(1,1-difluoropropyl)phenyl]-2-[4-methoxy-3-(1-methyl-4-piperidyl)phenyl]-5-methyl-3-oxido-1H-imidazol-3-ium-4-carboxamide] | Inactive | > 30 |
| CCC(F)(F)c1cccc(NC(=O)c2c(C)[nH]c(-c3ccc(OC)c(C4CCCCC4)c3)[n+]2[O-])c1 [Compound 145, 2-(3-cyclohexyl-4-methoxyphenyl)-4-((3-(1,1-difluoropropyl)phenyl)carbamoyl)-5-methyl-1H-imidazole 3-oxide] | Inactive | > 30 |
| COc1ccc(-c2[nH]c(C)c(C(=O)Nc3ccc4[nH]cnc4c3)[n+]2[O-])cc1-c1c(C)cccc1C [Compound 173, 4-((1H-benzo[d]imidazol-5-yl)carbamoyl)-2-(6-methoxy-2′,6′-dimethyl-[1,1′-biphenyl]-3-yl)-5-methyl-1H-imidazole 3-oxide] | Inactive | > 30 |
| CCC(F)(F)c1cccc(NC(=O)c2c(C)n(COP(=O)(O)OC(C)(C)C)c(-c3ccc(OC)c(-c4c(C)cccc4C)c3)[n+]2[O-])c1 [Compound 188, 1-(((tert-butoxy(hydroxy)phosphoryl)oxy)methyl)-4-((3-(1,1-difluoropropyl)phenyl)carbamoyl)-2-(6-methoxy-2′,6′-dimethyl-[1,1′-biphenyl]-3-yl)-5-methyl-1H-imidazole 3-oxide] | Inactive | 1 to 30 |
| CCC(F)(F)c1cccc(NC(=O)c2c(C)n(COP(=O)(O)O)c(-c3ccc(OC)c(-c4c(C)cccc4C)c3)[n+]2[O-])c1 [Compound 193, 4-((3-(1,1-difluoropropyl)phenyl)carbamoyl)-2-(6-methoxy-2′,6′-dimethyl-[1,1′-biphenyl]-3-yl)-5-methyl-1-((phosphonooxy)methyl)-1H-imidazole 3-oxide] | Inactive | > 30 |
| COc1cc(F)c(-c2[nH]c(C)c(C(=O)Nc3cccc(C(F)(F)F)c3)[n+]2[O-])nc1-c1c(C)cc(F)cc1C [Compound 209, 2-(3-fluoro-6-(4-fluoro-2,6-dimethylphenyl)-5-methoxypyridin-2-yl)-5-methyl-4-((3-(trifluoromethyl)phenyl)carbamoyl)-1H-imidazole 3-oxide] | Inactive | 1 to 30 |
| COc1ccc(-c2[nH]c(C)c(C(=O)Nc3cccc(C(F)(F)C4(C)CC4)c3)[n+]2[O-])cc1-c1c(C)cccc1C [Compound 151, 4-((3-(difluoro(1-methylcyclopropyl)methyl)phenyl)carbamoyl)-2-(6-methoxy-2′,6′-dimethyl-[1,1′-biphenyl]-3-yl)-5-methyl-1H-imidazole 3-oxide] | Inactive | > 30 |
| CCC(F)(F)c1cccc(NC(=O)c2c(C)[nH]c(-c3ccc(OC)c(N4CCOCC4)c3)[n+]2[O-])c1 [Compound 150, 4-((3-(1,1-difluoropropyl)phenyl)carbamoyl)-2-(4-methoxy-3-morpholinophenyl)-5-methyl-1H-imidazole 3-oxide] | Inactive | 1 to 30 |
| COc1ccc(-c2[nH]c(C)c(C(=O)Nc3cccc(C(=O)N4CCOCC4)c3)[n+]2[O-])cc1-c1c(C)cccc1C [Compound 148, 2-(6-methoxy-2′,6′-dimethyl-[1,1′-biphenyl]-3-yl)-5-methyl-4-((3-(morpholine-4-carbonyl)phenyl)carbamoyl)-1H-imidazole 3-oxide] | Inactive | > 30 |
| COc1cc(F)c(-c2[nH]c(C)c(C(=O)Nc3cccc(C(F)(F)F)c3)[n+]2[O-])nc1-c1c(F)cccc1F [Compound 208, 2-(6-(2,6-difluorophenyl)-3-fluoro-5-methoxypyridin-2-yl)-5-methyl-4-((3-(trifluoromethyl)phenyl)carbamoyl)-1H-imidazole 3-oxide] | Inactive | 1 to 30 |
| CCC(F)(F)c1cccc(NC(=O)c2c(C)[nH]c(-c3cc(C)cc(-c4c(C)cccc4C)c3)[n+]2[O-])c1 [Compound 130, 4-((3-(1,1-difluoropropyl)phenyl)carbamoyl)-5-methyl-2-(2′,5,6′-trimethyl-[1,1′-biphenyl]-3-yl)-1H-imidazole 3-oxide] |  | 1 to 30 |
